Assay results published in ChEMBL document CHEMBL1201862, “PubChem BioAssay data set” (2004).
The source made the active and inactive calls.

Key:
[1] = target: Potassium channel subfamily K member 9 (Homo sapiens, UniProt Q9NPC2); assay: KCNK9 flux blockade, concentration-response – cell-based, FluxOR thallium flux, selectivity assay for TASK1 inhibitor project, SAR follow-up (AID 652211); format: functional;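 also: potency is for inhibitors of the channel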
[2] = target: Heat shock protein HSP 90-alpha (Homo sapiens, UniProt P07900); format: functional, organism-based
[3] = target: ATP-dependent molecular chaperone HSP82 (Candida albicans (strain WO-1) (Yeast), UniProt C4YTQ8); assay: steroid-induced GRE reporter decrease in yeast – S. cerevisiae, luminescence, Hsp90 inhibitor project, dose response (AID 2400); format: functional, cell-based;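 also: beta-galactosidase luminescence from glucocorticoid response element reporter as proxy for Hsp90 function; inhibitor potency where signal loss means Hsp90 inhibition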
ATP-dependent molecular chaperone HSP82, sequence (C4YTQ8 whole entry): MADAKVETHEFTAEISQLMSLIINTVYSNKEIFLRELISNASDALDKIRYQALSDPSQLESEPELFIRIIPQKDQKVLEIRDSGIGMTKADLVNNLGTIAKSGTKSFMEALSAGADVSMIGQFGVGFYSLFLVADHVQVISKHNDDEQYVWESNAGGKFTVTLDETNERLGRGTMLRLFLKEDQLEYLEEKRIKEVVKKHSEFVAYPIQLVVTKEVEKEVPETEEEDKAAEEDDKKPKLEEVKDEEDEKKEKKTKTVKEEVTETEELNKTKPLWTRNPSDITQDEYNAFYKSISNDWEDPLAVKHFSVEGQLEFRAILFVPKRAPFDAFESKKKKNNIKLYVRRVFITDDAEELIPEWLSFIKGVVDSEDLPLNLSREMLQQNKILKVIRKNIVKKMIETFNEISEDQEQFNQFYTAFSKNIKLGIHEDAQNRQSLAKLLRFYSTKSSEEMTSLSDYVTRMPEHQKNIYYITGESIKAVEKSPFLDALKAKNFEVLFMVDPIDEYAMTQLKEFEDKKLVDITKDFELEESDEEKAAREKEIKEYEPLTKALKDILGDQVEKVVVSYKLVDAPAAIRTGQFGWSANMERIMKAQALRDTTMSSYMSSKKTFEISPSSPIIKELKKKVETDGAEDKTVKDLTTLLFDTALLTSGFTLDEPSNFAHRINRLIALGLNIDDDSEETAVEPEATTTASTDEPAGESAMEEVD

[4] = target: T1, Serine/threonine-protein phosphatase (Candida dubliniensis (strain CD36 / CBS 7987 / NCPF 3949 / NRRLY-17841) (Yeast), UniProt B9W6M3); assay: blockers of CaCl2-induced CDRE-lacZ signaling – S. cerevisiae, luminescence, secondary, dose response (AID 2388); format: functional, cell-based;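 also: yeast reporter cells carrying a calcineurin-responsive lacZ construct stimulated with calcium chloride; luminescent beta-galactosidase reporter signal in whole cells rather than isolated phosphatase activity; potency for inhibition where a drop in reporter signal means calcineurin blockade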
T1 sequence (B9W6M3 whole entry): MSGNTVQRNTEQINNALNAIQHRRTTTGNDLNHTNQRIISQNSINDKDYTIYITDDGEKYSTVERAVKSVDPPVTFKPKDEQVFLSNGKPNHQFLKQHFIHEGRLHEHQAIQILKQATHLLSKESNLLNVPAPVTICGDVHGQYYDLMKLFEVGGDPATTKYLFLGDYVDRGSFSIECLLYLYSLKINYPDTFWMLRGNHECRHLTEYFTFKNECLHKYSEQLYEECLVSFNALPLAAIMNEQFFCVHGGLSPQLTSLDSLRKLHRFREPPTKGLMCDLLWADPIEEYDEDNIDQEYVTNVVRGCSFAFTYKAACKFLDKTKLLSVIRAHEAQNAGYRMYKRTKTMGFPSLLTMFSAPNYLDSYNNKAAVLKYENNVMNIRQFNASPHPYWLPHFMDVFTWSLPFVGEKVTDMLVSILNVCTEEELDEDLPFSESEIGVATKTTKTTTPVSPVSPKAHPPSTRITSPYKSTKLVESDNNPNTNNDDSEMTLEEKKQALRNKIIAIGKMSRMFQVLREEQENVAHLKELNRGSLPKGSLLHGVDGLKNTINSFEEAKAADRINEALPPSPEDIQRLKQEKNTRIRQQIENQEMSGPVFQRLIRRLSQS

[5] = NIH-3T3 fibroblast cytotoxicity, dose response, cytotoxicity control, cell-based, fluorescence, Alamar Blue, secondary assay (AID 2327); format: functional;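 also: NIH-3T3 mouse fibroblasts cultured with fluconazole at 8 µg/mL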
[6] = target: 1-phosphatidylinositol 4,5-bisphosphate phosphodiesterase beta-3 (Homo sapiens, UniProt Q01970); assay: Fluorescence-based biochemical high throughput dose response assay to identify inhibitors of phospholipase C isozymes (PLC-B3).
1-phosphatidylinositol 4,5-bisphosphate phosphodiesterase beta-3, sequence (Q01970 whole entry): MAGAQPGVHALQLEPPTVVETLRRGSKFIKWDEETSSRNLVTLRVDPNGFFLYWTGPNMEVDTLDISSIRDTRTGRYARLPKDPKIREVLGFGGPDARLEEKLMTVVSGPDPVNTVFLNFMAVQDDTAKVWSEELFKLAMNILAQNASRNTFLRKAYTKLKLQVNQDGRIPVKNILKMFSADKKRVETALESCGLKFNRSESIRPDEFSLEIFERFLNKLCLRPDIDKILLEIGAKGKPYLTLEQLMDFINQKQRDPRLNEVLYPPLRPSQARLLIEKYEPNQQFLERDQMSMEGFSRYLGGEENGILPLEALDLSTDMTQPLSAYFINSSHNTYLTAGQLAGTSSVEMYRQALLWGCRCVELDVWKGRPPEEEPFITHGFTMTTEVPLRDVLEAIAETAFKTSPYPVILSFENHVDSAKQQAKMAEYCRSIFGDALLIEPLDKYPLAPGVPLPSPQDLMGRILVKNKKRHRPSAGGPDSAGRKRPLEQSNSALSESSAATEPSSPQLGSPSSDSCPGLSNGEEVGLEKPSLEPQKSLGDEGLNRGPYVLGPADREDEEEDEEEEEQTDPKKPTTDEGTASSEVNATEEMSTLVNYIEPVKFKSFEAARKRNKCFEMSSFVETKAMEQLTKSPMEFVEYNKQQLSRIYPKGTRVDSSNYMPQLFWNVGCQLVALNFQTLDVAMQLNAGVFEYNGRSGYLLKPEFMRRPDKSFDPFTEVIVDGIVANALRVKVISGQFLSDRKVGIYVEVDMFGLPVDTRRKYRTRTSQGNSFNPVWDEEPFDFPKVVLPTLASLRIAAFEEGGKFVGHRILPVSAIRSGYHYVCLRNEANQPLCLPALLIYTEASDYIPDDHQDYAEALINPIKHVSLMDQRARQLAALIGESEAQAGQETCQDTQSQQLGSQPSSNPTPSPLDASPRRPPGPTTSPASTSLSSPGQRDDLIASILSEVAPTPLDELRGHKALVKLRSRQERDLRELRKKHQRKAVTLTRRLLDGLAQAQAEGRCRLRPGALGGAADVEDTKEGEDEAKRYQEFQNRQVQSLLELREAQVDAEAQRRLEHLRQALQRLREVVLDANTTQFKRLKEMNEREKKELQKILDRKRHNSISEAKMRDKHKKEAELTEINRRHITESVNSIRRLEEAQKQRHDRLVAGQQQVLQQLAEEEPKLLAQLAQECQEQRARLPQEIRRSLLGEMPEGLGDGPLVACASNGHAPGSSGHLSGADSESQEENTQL

[7] = fluconazole-exposed Candida albicans growth modulators – fluorescence, retest, confirmation (AID 2467); format: functional, cell-based
[8] = target: 1-phosphatidylinositol 4,5-bisphosphate phosphodiesterase gamma-1 (Homo sapiens, UniProt P19174); assay: Counterscreen for inhibitors of phospholipase C isozymes (PLC-B3): Fluorescence-based biochemical high throughput dose response assay to identify inhibitors of phospholipase C isozymes (PLC-gamma1).
Vero = assay: viability loss in Vero cells – cell-based, plate reader, cherry-pick samples, cytotoxicity control, dose response (AID 687020); format: functional; settings: Chlorocebus sabaeus
A549 = assay: viability loss in A549 cells – cell-based, plate reader, cherry-pick samples, cytotoxicity control, dose response (AID 687028); format: functional; settings: Homo sapiens
cells [9] = format: functional, cell-based
[10] = target: T2, Trace amine-associated receptor 1 (Homo sapiens, UniProt Q96RJ0); assay: Fluorescence-based cell-based high throughput dose response assay to identify agonists of the human trace amine associated receptor 1 (TAAR1).; format: functional
T2 sequence (Q96RJ0 whole entry): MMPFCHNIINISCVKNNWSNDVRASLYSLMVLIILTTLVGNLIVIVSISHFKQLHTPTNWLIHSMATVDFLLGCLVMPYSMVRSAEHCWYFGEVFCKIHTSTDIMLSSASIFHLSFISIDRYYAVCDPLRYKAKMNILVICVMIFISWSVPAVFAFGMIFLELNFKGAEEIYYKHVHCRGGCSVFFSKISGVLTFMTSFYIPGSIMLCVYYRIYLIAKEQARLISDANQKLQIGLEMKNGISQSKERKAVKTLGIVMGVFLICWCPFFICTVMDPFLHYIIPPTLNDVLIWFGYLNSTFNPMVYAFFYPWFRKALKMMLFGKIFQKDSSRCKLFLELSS

[11] = target: T2, Trace amine-associated receptor 1; assay: Counterscreen for agonists of the human trace amine associated receptor 1 (hTAAR1): Fluorescence-based cell-based high throughput dose response assay to identify hTAAR1 agonist that also desensitize TAAR1 receptor response.; format: functional
cells [12] = format: functional, cell-based; remark: listed apart in the source
Galanin receptor type 3 = target: T3, Galanin receptor type 3 (Homo sapiens, UniProt O60755); assay: Fluorescence-based cell-based primary high throughput dose response assay to identify antagonists of the Galanin Receptor 3 (GalR3).; format: functional
T3 sequence (O60755 whole entry): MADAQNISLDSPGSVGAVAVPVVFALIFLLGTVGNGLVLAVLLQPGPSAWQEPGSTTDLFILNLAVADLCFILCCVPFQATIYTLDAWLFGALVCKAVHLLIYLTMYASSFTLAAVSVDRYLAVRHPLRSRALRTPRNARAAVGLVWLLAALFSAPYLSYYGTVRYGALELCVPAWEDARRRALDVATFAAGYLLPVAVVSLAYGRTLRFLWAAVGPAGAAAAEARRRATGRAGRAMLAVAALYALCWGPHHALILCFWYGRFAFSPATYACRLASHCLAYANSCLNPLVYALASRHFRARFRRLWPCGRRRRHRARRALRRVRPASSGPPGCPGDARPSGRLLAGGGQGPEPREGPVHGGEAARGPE

[13] = viability of HCT116 lacking mutant beta-catenin – cell-based, human colon tumor, dose response (AID 1045); format: functional;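 also: HCT116 colon tumor cells with beta catenin knocked out; cells exposed to compound for 60 hours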
[14] = loss of viability in HepG2 cells – cell-based, CellTiter-Glo, cherry-picked, cytotoxicity control for Shn3 inhibitor project, dose response (AID 624134); format: functional
[15] = Shn3 3'UTR reporter signal decrease – cell-based, Clone20 osteoblasts, firefly luciferase, cherry-pick, set 2, Schnurri-3 inhibitor project, dose response (AID 720490); format: functional;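 also: actives lower the luminescence signal as inhibitors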
[16] = reduction of Shn3 3'UTR-driven luciferase in osteoblasts – cell-based, Clone20 osteoblasts, firefly luciferase, cherry-picked, dose response (AID 624132); format: functional;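 also: firefly luciferase luminescence from reporter carrying the Shn3 3'UTR in osteoblasts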
cells [17] = format: functional, cell-based; settings: HEK-CNG
[18] = non-specific 3'UTR reporter inhibition in Clone20-Shn3RL – cell-based, Renilla luciferase, cherry-picked, counter-screen for Shn3 inhibitor project, dose response (AID 624133); format: functional
[19] = EF1alpha-driven Renilla reporter with control 3'UTR suppression – Clone20-Shn3RL cells, dual-Glo, cherry-pick, set 2, counter-screen for Shn3 3'UTR targeting project, dose response (AID 720724); format: functional, cell-based; settings: Dual-Go Shn3RL
[20] = target: Endoplasmic reticulum aminopeptidase 1 (Homo sapiens, UniProt Q9NZ08); assay: inhibition of human ERAP1 enzyme activity – biochemical, cherry-pick, set 2, plate reader, dose response (AID 743314)
Endoplasmic reticulum aminopeptidase 1, sequence (Q9NZ08 whole entry): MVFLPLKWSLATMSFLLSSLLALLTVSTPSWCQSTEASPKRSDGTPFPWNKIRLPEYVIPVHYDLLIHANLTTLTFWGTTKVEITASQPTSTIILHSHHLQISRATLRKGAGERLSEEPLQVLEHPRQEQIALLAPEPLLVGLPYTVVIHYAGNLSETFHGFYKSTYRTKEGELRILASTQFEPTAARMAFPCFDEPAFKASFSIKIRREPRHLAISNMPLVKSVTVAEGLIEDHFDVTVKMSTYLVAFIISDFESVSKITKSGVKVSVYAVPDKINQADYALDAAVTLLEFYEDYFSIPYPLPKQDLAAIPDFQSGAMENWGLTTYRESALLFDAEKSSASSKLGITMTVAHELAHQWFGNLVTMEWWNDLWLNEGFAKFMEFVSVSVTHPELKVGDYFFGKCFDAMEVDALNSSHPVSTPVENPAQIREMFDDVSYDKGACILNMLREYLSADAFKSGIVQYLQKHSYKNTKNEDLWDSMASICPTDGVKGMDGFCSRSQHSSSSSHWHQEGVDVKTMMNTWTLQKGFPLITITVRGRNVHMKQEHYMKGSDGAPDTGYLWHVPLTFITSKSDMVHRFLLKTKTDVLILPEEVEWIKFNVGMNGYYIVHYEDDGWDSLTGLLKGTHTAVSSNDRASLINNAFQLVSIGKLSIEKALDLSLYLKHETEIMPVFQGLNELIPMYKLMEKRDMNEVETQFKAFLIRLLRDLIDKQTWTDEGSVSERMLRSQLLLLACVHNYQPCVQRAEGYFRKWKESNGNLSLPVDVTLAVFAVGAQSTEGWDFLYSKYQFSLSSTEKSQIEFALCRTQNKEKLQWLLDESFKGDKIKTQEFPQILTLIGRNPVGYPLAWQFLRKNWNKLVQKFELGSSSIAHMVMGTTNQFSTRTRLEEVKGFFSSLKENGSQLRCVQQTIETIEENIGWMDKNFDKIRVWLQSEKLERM

[21] = target: Nuclear receptor subfamily 0 group B member 1 (Homo sapiens, UniProt P51843); format: functional, cell-based;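 also: HEK293T cells transfected with SF-1 and DAX-1 plus StAR promoter luciferase reporter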
Nuclear receptor subfamily 0 group B member 1, sequence (P51843 whole entry): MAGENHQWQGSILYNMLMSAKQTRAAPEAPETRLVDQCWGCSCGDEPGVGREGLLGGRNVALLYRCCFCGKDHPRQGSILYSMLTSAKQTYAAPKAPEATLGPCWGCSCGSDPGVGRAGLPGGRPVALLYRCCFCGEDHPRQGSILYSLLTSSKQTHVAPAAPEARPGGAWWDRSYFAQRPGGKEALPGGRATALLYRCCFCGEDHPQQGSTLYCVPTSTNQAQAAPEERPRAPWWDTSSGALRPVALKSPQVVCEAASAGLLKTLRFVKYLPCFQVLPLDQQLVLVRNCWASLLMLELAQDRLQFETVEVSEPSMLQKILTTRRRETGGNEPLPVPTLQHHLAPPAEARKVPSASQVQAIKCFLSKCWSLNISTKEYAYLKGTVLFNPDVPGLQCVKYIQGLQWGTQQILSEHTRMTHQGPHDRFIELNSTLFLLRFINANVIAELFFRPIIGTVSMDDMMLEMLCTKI

cells [22] = format: functional, cell-based; remark: listed apart in the source
[23] = target: Luciferin 4-monooxygenase (Photinus pyralis, UniProt P08659); assay: inhibition of purified Photinus pyralis luciferase – biochemical, luminescence, dose response (AID 1891)
Luciferin 4-monooxygenase, sequence (P08659 whole entry): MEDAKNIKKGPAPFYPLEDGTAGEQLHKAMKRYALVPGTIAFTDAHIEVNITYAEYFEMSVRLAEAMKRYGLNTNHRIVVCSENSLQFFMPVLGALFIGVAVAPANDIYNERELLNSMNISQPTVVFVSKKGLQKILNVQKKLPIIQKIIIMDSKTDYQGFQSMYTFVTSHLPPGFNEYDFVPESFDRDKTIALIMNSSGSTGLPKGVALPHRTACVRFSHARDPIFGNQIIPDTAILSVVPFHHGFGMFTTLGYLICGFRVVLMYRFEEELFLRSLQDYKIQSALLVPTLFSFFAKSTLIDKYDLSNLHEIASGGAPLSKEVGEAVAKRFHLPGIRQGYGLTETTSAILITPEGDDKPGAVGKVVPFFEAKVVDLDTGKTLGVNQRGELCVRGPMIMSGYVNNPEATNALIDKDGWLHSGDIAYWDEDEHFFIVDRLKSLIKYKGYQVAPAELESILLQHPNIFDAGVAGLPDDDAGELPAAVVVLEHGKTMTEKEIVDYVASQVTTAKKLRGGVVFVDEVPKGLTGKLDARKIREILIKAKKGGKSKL

BJ [24] = assay: BJ-TERT fibroblast viability loss – cell-based, RAS-independent, luminescence, dose response (AID 1933); format: functional; settings: Homo sapiens
BJ [25] = assay: BJ-TERT-LT-ST fibroblast viability loss – cell-based, RAS-independent, luminescence, dose response (AID 1935); format: functional; settings: Homo sapiens;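 also: BJ fibroblasts immortalized with TERT plus LT and ST oncogenes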
BJ [26] = assay: cells; format: functional, cell-based, Homo sapiens; settings: Homo sapiens, BJ
INS1 = assay: INS-1E survival protection against cytokine death – cell-based, luminescence, retest, dose response (AID 449756); format: functional; settings: Rattus norvegicus;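 also: cell death triggered by IL-1 beta plus TNF-alpha plus IFN-gamma mixture; protective hits raise ATP signal compared with cytokine alone wells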
[27] = viability loss in HepG2 hepatoma cells – cell-based, ATP luminescence, cherry-pick, activator set 2, cytotoxicity control, dose response (AID 1053143); format: functional
[28] = Luminescence Cell-Based Dose Confirmation HTS to Identify Inhibitors of Platelet Dense Granule Release. [Related pubchem assays: 1663 (Primary HTS), 1678 (Summary of Project)]; format: functional
[29] = DRD fibroblast viability loss – cell-based, non-viral oncogenic, luminescence, dose response (AID 1934); format: functional; settings: Homo sapiens
BJ [30] = assay: growth inhibition of engineered Ras-driven BJ cells – cell-based, alamar blue fluorescence, cherrypicked samples, dose response (AID 2631); format: functional; settings: Homo sapiens;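 also: confirmatory dose-response assay in RAS-dependent BJ fibroblasts engineered with TERT, LT and ST, with cytotoxicity read by fluorescence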

Potassium channel subfamily K member 9, sequence (Q9NPC2 whole entry): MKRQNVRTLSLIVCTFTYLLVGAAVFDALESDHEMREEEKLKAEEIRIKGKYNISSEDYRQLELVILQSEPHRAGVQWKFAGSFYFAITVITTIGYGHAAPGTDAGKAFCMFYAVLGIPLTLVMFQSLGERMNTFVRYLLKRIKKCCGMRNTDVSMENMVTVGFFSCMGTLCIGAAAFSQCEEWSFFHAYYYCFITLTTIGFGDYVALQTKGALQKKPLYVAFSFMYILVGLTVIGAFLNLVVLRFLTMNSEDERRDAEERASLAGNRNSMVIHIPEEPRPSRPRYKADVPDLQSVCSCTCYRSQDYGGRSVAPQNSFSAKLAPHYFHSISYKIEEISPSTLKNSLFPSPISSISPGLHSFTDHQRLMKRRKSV

For `Cc1cccc(C(=O)Nc2cccc(NC(=O)c3cccc(Cl)c3)c2)c1`, the IC50 [1] was 13.4 µM (active).
With `N=C(Cc1ccc(Cl)c(Cl)c1)NOC(=O)c1cccs1` the AC50 [2] was 3.01 µM (active), the EC50 [3] was 11.6 µM (active) and the EC50 [4] was > 180 µM (inactive). For the same compound, the EC50 [5] was > 160 µM (inconclusive), the IC50 [6] was > 122 µM (inactive) and the EC50 [7] was 376 nM (active). The IC50 [8] was > 122 µM (inactive).
In the case of `O=C(CN1CCN(C(=O)C2CCC2)CC1)Nc1ccc(F)cc1`, the AC50 (Vero) is reported as 28.2 µM (active) and the AC50 (A549) is reported as 21.4 µM (active).
With `Cc1ccc(NC(=O)CCN2CCc3ccccc3C2)cc1` the EC50 (cells [9]) was > 29.9 µM (inactive), the EC50 [10] was 1.12 µM (active) and the IC50 [11] was 7.46 µM (active). For the same compound, the IC50 (cells [12]) was > 29.9 µM (inactive).
With `CCCOC(=O)c1ccc(OCC(O)Cn2c(C)nc3ccccc32)cc1` (centres undefined) the IC50 (Galanin receptor type 3) was 1.57 µM (active), the EC50 [13] was 14.6 µM (active) and the AC50 [14] was 35.6 µM (active). For the same compound, the AC50 [15] was 3.38 µM (active), the AC50 [16] was 620 nM (active) and the EC50 (cells [17]) was > 29.9 µM (inactive). For the same compound, the AC50 [18] was 8.49 µM (active) and the AC50 [19] was 5.13 µM (active).
For `Cc1c(C)c2ccc(O)c(CN3CCCC3)c2oc1=O`, the AC50 [20] was 7.31 µM (active).
In the case of `CS(=O)(=O)c1cccc(C(=O)Nc2ccc(-c3nc4ccccc4[nH]3)cc2)c1`, the IC50 [21] is reported as > 67.5 µM (inactive) and the IC50 (cells [22]) is reported as > 67.5 µM (inactive).
For `Cc1occc1C(=O)N/N=C/c1ccc2c(c1)OCO2`, the EC50 [23] was 1.4 µM (active), the EC50 (BJ [24]) was 8.43 µM (active) and the EC50 (BJ [25]) was 16.8 µM (active). The EC50 (BJ [26]) was 7.36 µM (active), the AC50 (INS1) was 4.17 µM (active) and the AC50 [27] was 8.12 µM (active). For the same compound, the EC50 [28] was 1.77 µM (active), the EC50 [29] was 5.68 µM (active) and the EC50 (BJ [30]) was > 133 µM (inactive).
